Measured values: ChEMBL document CHEMBL1201862, “PubChem BioAssay data set” (2004)
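Test compounds were applied to cells in 96-well plates for 48 hours at 5 doses. GI50 is the concentration that inhibits growth by half.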 Active and inactive are the calls of the source. Cut-off read from the data, not from the text of the source: active = GI50 up to about 1.1 µM and inactive = higher.

Legend:
Test in all cases: inhibition of tumour cell growth, NCI panel, 48 h
M19-MEL = system: M19-MEL
RXF 393 = system: RXF 393
IGROV-1 = system: IGROV-1
A549 = system: A549
EKVX = system: EKVX
HCT-15 = system: HCT-15
SK-MEL-2 = system: SK-MEL-2
SNB-75 = system: SNB-75
K562 = system: K562
OVCAR-4 = system: OVCAR-4
KM12 = system: KM12
NCI/ADR-RES = system: NCI/ADR-RES
SK-OV-3 = system: SK-OV-3
SK-MEL-5 = system: SK-MEL-5
A498 = system: A498
CAKI-1 = system: CAKI-1
TK-10 = system: TK-10
BT-549 = system: BT-549
Hs-578T = system: Hs-578T
DU-145 = system: DU-145

SMILES | GI50 (M19-MEL) | GI50 (RXF 393) | GI50 (IGROV-1) | GI50 (A549) | GI50 (EKVX) | GI50 (HCT-15) | GI50 (SK-MEL-2) | GI50 (SNB-75) | GI50 (K562) | GI50 (OVCAR-4) | GI50 (KM12) | GI50 (NCI/ADR-RES) | GI50 (SK-OV-3) | GI50 (SK-MEL-5) | GI50 (A498) | GI50 (CAKI-1) | GI50 (TK-10) | GI50 (BT-549) | GI50 (Hs-578T) | GI50 (DU-145)
O=C(O)CCCCCCC[C@@H]1S[C@H]1CCCCCCO | > 100 µM (inactive) | > 100 µM (inactive) | > 64.7 µM (inactive) | > 100 µM (inactive) | > 100 µM (inactive) | > 100 µM | > 100 µM (inactive) | > 100 µM (inactive) | > 100 µM (inactive) | > 100 µM (inactive) | > 100 µM (inactive) | > 100 µM (inactive) | > 100 µM (inactive) | > 100 µM (inactive) | > 60.7 µM (inactive) | > 100 µM (inactive) |  |  |  | 
O=C1CCC(c2nc3cc(Cl)ccc3o2)C(=O)N1 (stereo unspecified) | > 100 µM (inactive) | > 100 µM (inactive) | > 100 µM (inactive) | > 100 µM (inactive) | > 100 µM (inactive) | > 100 µM | > 100 µM (inactive) | 64.7 µM (inactive) | > 100 µM (inactive) | > 100 µM (inactive) | > 100 µM (inactive) |  | > 100 µM (inactive) | > 100 µM (inactive) | > 100 µM (inactive) | > 100 µM (inactive) | > 100 µM (inactive) |  |  | 
O=C(CCBr)N1CCN(C(=O)CCBr)CC1 [PIPOBROMAN] | 86.9 µM (inactive) | 68.2 µM (inactive) | 97.5 µM (inactive) | 43.9 µM (inactive) | 85.7 µM (inactive) | 83.8 µM | 107 µM (inactive) | 71.4 µM (inactive) | 131 µM (inactive) | 86.9 µM (inactive) | > 93.5 µM (inactive) | 81.8 µM (inactive) | 105 µM (inactive) | 64.1 µM (inactive) | 80.7 µM (inactive) | 47.9 µM (inactive) | 244 µM (inactive) | 61.8 µM (inactive) | 190 µM (inactive) | 64.6 µM (inactive)
COC1=CC(=O)[C@]2(C)[C@H](C1=O)C(C)[C@H]2c1ccccc1 (stereo partly specified) | > 100 µM (inactive) | > 100 µM (inactive) | > 100 µM (inactive) | > 100 µM (inactive) | > 100 µM (inactive) | > 100 µM | > 100 µM (inactive) | > 100 µM (inactive) | > 100 µM (inactive) | > 100 µM (inactive) | > 100 µM (inactive) |  | > 100 µM (inactive) | > 100 µM (inactive) | > 100 µM (inactive) | > 100 µM (inactive) | > 100 µM (inactive) |  |  | 
COc1c2ccoc2c(S(=O)(=O)Nc2ccc(Cl)cc2)c2oc(C)cc(=O)c12 | > 100 µM (inactive) | 25.1 µM (inactive) | > 100 µM (inactive) | > 100 µM (inactive) | > 100 µM (inactive) | > 100 µM | > 76.2 µM (inactive) | 27.2 µM (inactive) | > 100 µM (inactive) | 32.5 µM (inactive) | > 100 µM (inactive) | > 100 µM (inactive) | > 100 µM (inactive) | > 79.8 µM (inactive) | 54.6 µM (inactive) | > 34.9 µM (inactive) |  |  |  | 
COc1cccc(NC(=O)C(=O)C(C(=O)c2ccccc2F)C2OC(=O)c3ccccc32)c1 (stereo unspecified) | 22.9 µM (inactive) | 28.1 µM (inactive) | 56.6 µM (inactive) | 45.3 µM (inactive) | 41.8 µM (inactive) | 28.7 µM | 22.5 µM (inactive) | 24.9 µM (inactive) | 30.9 µM (inactive) | 36.4 µM (inactive) | 45.8 µM (inactive) |  | 35.2 µM (inactive) | 52 µM (inactive) | 72.6 µM (inactive) | 52.5 µM (inactive) | > 100 µM (inactive) |  |  | 
COC(=O)/C=C\C1C(C(=O)OC)C2(C(=O)OC)CCC1(C(=O)OC)N2 (stereo unspecified) | 14.7 µM (inactive) | 7.21 µM (inactive) | 26.9 µM (inactive) | 20.4 µM (inactive) | 27.2 µM (inactive) | 3.33 µM | 15.5 µM (inactive) | 18.5 µM (inactive) | 12 µM (inactive) | 19.1 µM (inactive) | 20.5 µM (inactive) |  | 17.9 µM (inactive) | 19.3 µM (inactive) | 18.1 µM (inactive) | 2.88 µM (inactive) | 4.47 µM (inactive) |  |  | 
CCCCCCCCCCNC1CC(OC2CC(O)(C(O)CO)Cc3c(O)c4c(c(O)c32)C(=O)c2c(OC)cccc2C4=O)OC(C)C1O (stereo unspecified) | 1.65 µM (inactive) | 1.26 µM (inactive) | 1.74 µM (inactive) | 1.58 µM (inactive) | 1.78 µM (inactive) | 1.56 µM | 1.4 µM (inactive) | 1.62 µM (inactive) | 0.324 µM (active) | 1.53 µM (inactive) | 1.5 µM (inactive) | 1.88 µM (inactive) | 1.6 µM (inactive) | 1.74 µM (inactive) | 1.5 µM (inactive) | 1.68 µM (inactive) | 4.44 µM (inactive) | 1.7 µM (inactive) | 1.67 µM (inactive) | 1.79 µM (inactive)
